From paper PMC7496275, “Pentathiepins: A Novel Class of Glutathione Peroxidase 1 Inhibitors that Induce Oxidative Stress, Loss of Mitochondrial Membrane Potential and Apoptosis in Human Cancer Cells” (Chemmedchem, 2020)

Legend:
[1] = system: human GPx; assay: GPx activity assay with human cancer cell lysates (SISO); type: biochemical; conditions: inhibitor at its IC50 for bovine GPx, 0.5 mM GSH
Method: To investigate whether the pentathiepins have an inhibitory effect on human GPx, cell lysates of the human cervix cancer cell line SISO, which expresses high levels of GPx1 (see below), were incubated with either 4 or MSA in concentrations of the IC50 value for the inhibitory effect on bovine GPx1.
To measure the inhibition of human GPx activity, the enzyme assay was adapted to use human cancer cell lysates in place of the bovine enzyme. A quantity of 100 μg cellular protein (determined according to the Bradford method) per well was used. Due to the large consumption of cell lysates, just the inhibitory effect on GPx at one concentration of pentathiepin was determined in primary screening. The concentration of GSH was raised to a concentration of 0.5 mM to increase the velocity of the reaction, all other conditions were unchanged. The rates of NADPH oxidation were normalized to the solvent control. […] We used 100 μg protein of lysates and added GSH up to final concentrations between 0.375–3 mM. The rates of the GPx activity were calculated by nonlinear regression and the fitted with the GraphPad Prism 6.0 software: “Enzyme kinetics – Substrate vs. Velocity (Michaelis‐Menten)”.

[2] = system: SISO human cervix cancer cell line; assay: Crystal violet proliferation assay; type: cell-based; conditions: Homo sapiens, 37 °C, 96 h, n>4, read-out: Inhibition of cell viability GI50 (CI 95 %)
Method: GI50 values for 50 % growth inhibition were all in a low micro molar range (Table 1). […] The indole−pentathiepins gave lower GI50 values than the pyrrolo[1,2‐a]quinoxaline derivatives. […] There was also a trend showing that an electron rich substituent in position R^2 increased the antiproliferative effect in SISO cells.
Crystal violet proliferation assay: To measure cell growth inhibition, the crystal violet assay was carried out as previously described.37 Adherent cell lines were seeded out in a 96‐well plate (1000 cells per 200 μL culture medium) and allowed to attach for 24 h. Cells were exposed to nine serial dilutions of compound, added to the medium from 1000‐fold concentrated stock solutions in DMF. For the controls, cells were exposed to 0.1 % DMF alone. After addition of compounds, plates for the detection of the starting point of the proliferation at incubation time zero (t 0) were stopped with glutaraldehyde (see below), washed with Dulbecco's buffer (containing KCl 0.2 g/L, MgSO4 ⋅ 7 H2O 0.1 g/L, Na2HPO4 ⋅ >7 H2O 1.55 g/L, KH2HPO4 0.2 g/L and NaCl 8 g/L in water) and stored at 4 °C until the staining procedure. Treated cells were incubated for 96 h in the incubator, the medium was removed and replaced with 100 μL of 1 % glutaraldehyde in Dulbecco's buffer for 20 min. After washing twice with 150 μL of Dulbecco's buffer, the buffer was removed and replaced with 100 μL of a 0.02 % crystal violet solution dissolved in water for 30 min and subsequently washed in tap water for 15 min. Water was removed and replaced with 100 μL of ethanol (70 % in water) followed by shaking on a 96‐well shaker (MS3 digital, IKA‐Werke, Germany) for 2 h. Optical density was measured with a SpectraMax Plus 383 microtiter plate reader at λ=570 nm (Molecular Devices, USA). The optical density of t 0 plates at the time of treatment were subtracted from optical densities of plates with treated cells after 96 h (T), and the growth inhibition relative to untreated, control cells (C) as described.22 Growth inhibition concentrations at 50 % (GI50) were calculated by determining the inflection point of the sigmoidal log dose‐growth inhibition (%T/C) curves with the GraphPad Prism 6.0 software.

[3] = system: pBR322 plasmid; assay: Cleavage of supercoiled plasmid DNA; conditions: 5 μM, 20 h, 37 °C
Method: To assess the potential DNA‐cleaving activity of 4 a plasmid cleavage assay was performed. This method makes use of the different mobilities that plasmids display during electrophoretic separation processes in an agarose gel. An intact supercoiled plasmid has the highest mobility due to its compactness, open circular plasmids (ocDNA), e. g. plasmids with a single strand break, present a lower mobility due to increased friction of this less compact DNA construct. Commercially available DNA plasmids usually present ratios of 95 % supercoiled and 5 % ocDNA. Upon treatment with DNA‐damaging agents this ratio will be shifted towards a higher amount of ocDNA due to single strand breaks, or even linearized DNA in case double strand breaks are induced. […]
Cleavage of supercoiled plasmid DNA: For this assay, 0.3 μg pBR322 plasmid (Thermo Fisher) were incubated with either 0.1 % DMF or 5 μM 4 with or without 2 mM glutathione (GSH) in a 50 mM sodium phosphate buffer at pH 7.5 for 20 h in a 37 °C water bath. Afterwards, the samples were separated on a 1 % agarose (Geneon) gel at 80 V (5 V/cm) for 2 h, stained with GelRed (Biotium) and the image captured and bands quantified using ImageLab (Biorad). The resulting data was analyzed and visualized with Prism 7 (GraphPad).

SMILES: CCOc1c2c(c3cnc4cc(C)c(C)cc4n13)SSSSS2 [Compound 4]
- inhibition of GPx activity [1]: about 20%
- GI50 [2]: 8.9 µM
- fraction of damaged plasmid ([3]; with 2 mM GSH): 19%
- fraction of damaged plasmid ([3]; without additional thiol): 7%
